How the values were obtained:
[1] = tested on: anterior cingulate cortex (ACC); test: 31P MRSI (3D-CSI, 4 Tesla) of phosphorus metabolites in the anterior cingulate cortex after six weeks of oral citicoline; assay type: in vivo, human; settings: 6 weeks, doses pooled, mean ± SD
Excerpt: (§1) ^31P data were collected using a three-dimensional chemical shift imaging (3D-CSI) technique at 4 Tesla in healthy middle-aged individuals. The use of 3D-CSI at high field has several advantages over previous methods: 1) increased spectral dispersion, which allows for increased precision of metabolite quantification; 2) post-processing grid shifting that allows for 3D placement of voxels of interest; and 3) the ability to co-register voxel placement between baseline and post-treatment follow-up. High-energy metabolite peaks quantified in the present study include phosphocreatine (PCr), β-nucleoside triphosphate (NTP, ATP in brain), and inorganic phosphate (Pi). Phospholipid membrane metabolite peaks quantified include anabolites, phosphomonoesters (PME), including phosphoethanolamine (PE) and phosphocholine (PC), and catabolites, phosphodiesters (PDE), including glycerophosphoethanolamine (GPE) and glycerolphosphocholine (GPC). A region of interest approach was used to examine phosphorus metabolite levels in the anterior cingulate cortex (ACC), given the notable age-related decline in frontal brain metabolism and impairment of frontally-mediated cognitive functions. A comparison region placed in the parieto-occipital cortex (POC) was also evaluated. It was hypothesized that oral supplementation with citicoline would improve frontal bioenergetic metabolism via elevations in availability of high-energy phosphates, as well as alteration of membrane phospholipid turnover by providing additional membrane precursors.
(§2) Subjects included sixteen neurologically and psychiatrically healthy adults (mean age=47.3±5.4 years; 8 females, 8 males). Trained research technicians administered a structured clinical psychiatric interview using the Structured Clinical Interview for DSM-IV (SCID). All subjects were free of Axis I diagnoses, neurological illness, severe medical problems, and psychoactive substance use.
(§3) Subjects were randomly assigned to receive a six-week supply of either 500 mg (4 males and 4 females) or 2000 mg (4 males and 4 females) of Cognizin® Citicoline (Kyowa Hakko Kogyo Co., Ltd., JAPAN). Subjects were instructed to take one capsule every day (500 mg group) or four capsules every day in a single dose (2000 mg group) for six weeks. […] Magnetic resonance spectroscopy (MRS) was completed on all subjects in two imaging sessions: one prior to beginning treatment (baseline) and one after completing six weeks of treatment.
(§4) All proton imaging was performed using the proton channel of the dual tuned open face proton-phosphorus TEM whole-head coil from Bioengineering Inc. (Minneapolis, Minn.) operating at a nominal frequency of 170.3 MHz. A 2D gradient-recalled echo imaging sequence (12 seconds duration) was used to acquire a single image in all three spatial dimensions (sagittal, coronal, axial) to quickly determine the patient's position and angle. High-contrast, T1-weighted sagittal, coronal images as well as T1 and T2-weighted transverse images of the entire brain were acquired using a three-dimensional, magnetization-prepared FLASH imaging sequence (3D-MP FLASH), allowing for clear segmentation between grey-matter, white-matter, and CSF, as well as clearly delineating between the different anatomical regions of interest. This approach was used to optimize […] voxel positioning, and volumetric correction in the regions of interest.
(§5) Phosphorus MRSI was performed using the phosphorus channel of the dual tuned proton-phosphorus TEM whole-head coil from Bioengineering Inc. (Minneapolis, Minn.) operating at 68.9 MHz. Phosphorus MRSI data were recorded using a three-dimensional chemical shift imaging (3D-CSI) sequence (Garraux, Neuroimage 10:149-162, 1999). […]

[2] = tested on: axial brain slice through the frontal and occipital cortices; settings: elderly subjects (69.4±5.6 years), 6 weeks of treatment, 1.5 Tesla; cited from earlier work
[3] = tested on: parieto-occipital cortex (POC); test: 31P MRSI (3D-CSI, 4 Tesla) of phosphorus metabolites in the parieto-occipital cortex (comparison region) after six weeks of oral citicoline; assay type: in vivo, human
Excerpt: as §1, §2, §3, §4, §5

[4] = POC, six weeks, at either dose (500 or 2000 mg)

Q: Which “PC, metabolite ratio relative to total 31P signal” value ([1]; baseline .026 ± .010, p .02) does the source give for `C[N+](C)(C)CCOP(=O)(O)OP(=O)([O-])OC[C@H]1O[C@@H](n2ccc(N)nc2=O)[C@H](O)[C@@H]1O` [citicoline, CDP-choline] here?
A: .019 ± .008

Q: And the “GPE, metabolite ratio relative to total 31P signal” value ([1]; baseline .039 ± .010, p .01)?
A: .030 ± .009

Q: What about the “PE, metabolite ratio relative to total 31P signal” value ([1]; baseline .043 ± .015, p .04) of the same compound?
A: .054 ± .008

Q: What about the “GPC, metabolite ratio relative to total 31P signal” value ([1]; baseline .051 ± .015, ns) of the same compound?
A: .047 ± .016

Q: And the “β-NTP, metabolite ratio relative to total 31P signal” value ([1]; baseline .066 ± .012, p .05)?
A: .075 ± .014

Q: What about the “PME, metabolite ratio relative to total 31P signal” value ([1]; baseline .069 ± .016, ns) of the same compound?
A: .073 ± .012

Q: And the “Pi, metabolite ratio relative to total 31P signal” value ([1]; baseline .073 ± .012, p .15)?
A: .065 ± .022

Q: What about the “change in phosphodiesters (PDE, phospholipid membrane catabolites)” value [2] of the same compound?
A: significant increase

Q: And the “change in phospholipid membrane metabolites” value ([3]; POC region of interest, baseline vs six weeks)?
A: No significant changes

Q: What about the “PC, metabolite ratio relative to total 31P signal” value ([3]; POC, 6 weeks, doses pooled, mean ± SD, baseline .023 ± .009, ns) of the same compound?
A: .026 ± .012

Q: What about the “GPE, metabolite ratio relative to total 31P signal” value ([3]; POC, 6 weeks, doses pooled, mean ± SD, baseline .034 ± .011, ns) of the same compound?
A: .032 ± .014

Q: What about the “GPC, metabolite ratio relative to total 31P signal” value ([3]; POC, 6 weeks, doses pooled, mean ± SD, baseline .047 ± .017, ns) of the same compound?
A: .047 ± .010

Q: And the “β-NTP, metabolite ratio relative to total 31P signal” value ([3]; POC, 6 weeks, doses pooled, mean ± SD, baseline .063 ± .009, ns)?
A: .066 ± .010

Q: And the “PE, metabolite ratio relative to total 31P signal” value ([3]; POC, 6 weeks, doses pooled, mean ± SD, baseline .065 ± .009, ns)?
A: .058 ± .010

Q: And the “Pi, metabolite ratio relative to total 31P signal” value ([3]; POC, 6 weeks, doses pooled, mean ± SD, baseline .072 ± .010, ns)?
A: .075 ± .013

Q: What about the “PME, metabolite ratio relative to total 31P signal” value ([3]; POC, 6 weeks, doses pooled, mean ± SD, baseline .088 ± .015, ns) of the same compound?
A: .084 ± .011

Q: What about the “change in PCr/Pi ratio” value [3, 4] of the same compound?
A: No changes

Q: And the “change in Pi” value [3, 4]?
A: No changes

From patent US20100041621A1, “METHODS AND COMPOSITIONS FOR IMPROVING COGNITIVE PERFORMANCE” (priority 2008, published 2010)
